The nature of series [1]: Stability in mouse microsomes. The format is ADME, Microsome.
Series [2] deals with T1, Muscarinic acetylcholine receptor M1 (Homo sapiens, UniProt P11229).
T1 sequence (P11229 whole entry): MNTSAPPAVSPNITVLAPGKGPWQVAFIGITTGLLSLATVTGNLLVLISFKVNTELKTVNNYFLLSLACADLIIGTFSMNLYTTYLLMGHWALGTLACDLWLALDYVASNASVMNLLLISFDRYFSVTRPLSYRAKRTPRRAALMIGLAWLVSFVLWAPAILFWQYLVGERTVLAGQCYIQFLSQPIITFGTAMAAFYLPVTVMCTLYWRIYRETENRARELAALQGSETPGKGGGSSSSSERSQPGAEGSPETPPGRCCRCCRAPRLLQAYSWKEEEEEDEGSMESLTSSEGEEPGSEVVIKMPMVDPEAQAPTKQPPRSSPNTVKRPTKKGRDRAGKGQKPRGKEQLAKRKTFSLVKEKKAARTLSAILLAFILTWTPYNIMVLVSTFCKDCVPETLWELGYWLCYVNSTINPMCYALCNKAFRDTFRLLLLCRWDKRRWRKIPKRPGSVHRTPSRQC
The series is described as follows: Positive allosteric modulation of human wild type M1 receptor assessed as increase in acetylcholine-induced calcium flux by FLIPR assay. The format is functional.

In series [3] the target is Cytochrome P450 3A4 (Homo sapiens, UniProt P08684). The series is described as follows: Inhibition of CYP3A4 (unknown origin). The format is ADME.
Series [4] in a line: Drug metabolism in rat microsomes assessed as amide formation. The format is ADME, Microsome.
The nature of series [5]: Activity at P-gp (unknown origin). The format is ADME. Particulars: human.
For series [6], the target named is T2, Muscarinic acetylcholine receptor M1 (Homo sapiens) (UniProt P11229).
T2 sequence (whole entry): T1 sequence (P11229 whole entry)
The series is described as follows: Positive allosteric modulation of human wild type M1 receptor assessed as increase in acetylcholine-induced calcium flux by FLIPR assay relative to acetylcholine. The format is functional. Background: Calcium assays in cells follow changes in intracellular calcium, usually with a dye or a luminescent sensor.

Series [7] in a line: Stability in human microsomes. The format is ADME, Microsome.
In series [8] the target is GABA-A receptor; alpha-2/beta-3/gamma-2 (Homo sapiens, UniProt P18507+P28472+P47869). The series can be described thus: […] human GABA-A receptor alpha2beta3gamma2 expressed in HEK293 cells by electrophysiology assay. The format is cell-based. Background: Displacement assays read how much labelled ligand stays bound in the presence of the test substance.

Series [9] concerns the target GABA A receptor alpha-5/beta-3/gamma-2 (Rattus norvegicus, UniProt P18508+P19969+P63079). The series is described as follows: […] rat GABA-A receptor alpha5beta3gamma2 expressed in HEK293 cells by electrophysiology assay. The format is cell-based.
Series [10] has as its target GABA-A receptor; alpha-1/beta-2/gamma-2 (Homo sapiens, UniProt P14867+P18507+P47870). The series can be described thus: […] human GABA-A receptor alpha1beta2gamma2 expressed in HEK293 cells by electrophysiology assay. The format is cell-based.
For series [11], the target named is Gamma-aminobutyric acid receptor subunit alpha-2/beta-3/gamma-2 (Rattus norvegicus, UniProt P18508+P23576+P63079). The series is described as follows: […] rat GABA-A receptor alpha2beta3gamma2 expressed in HEK293 cells by electrophysiology assay. The format is cell-based.
In series [12] the target is Gamma-aminobutyric acid receptor subunit alpha-3/beta-3/gamma-2 (Rattus norvegicus, UniProt P18508+P20236+P63079). The series is described as follows: […] rat GABA-A receptor alpha3beta3gamma2 expressed in HEK293 cells by electrophysiology assay. The format is cell-based.
Series [13] deals with GABA-A receptor; alpha-5/beta-3/gamma-2 (Homo sapiens, UniProt P18507+P28472+P31644). The series can be described thus: […] human GABA-A receptor alpha5beta3gamma2 expressed in HEK293 cells by electrophysiology assay. The format is cell-based.
Series [14] addresses GABA-A receptor; alpha-3/beta-3/gamma-2 (Homo sapiens, UniProt P18507+P28472+P34903). The series can be described thus: […] human GABA-A receptor alpha3beta3gamma2 expressed in HEK293 cells by electrophysiology assay. The format is cell-based.
Series [15] concerns the target GABA-A receptor; alpha-1/beta-2/gamma-2 (Rattus norvegicus, UniProt P18508+P62813+P63138). The series is described as follows: […] rat GABA-A receptor alpha1beta2gamma2 expressed in HEK293 cells by electrophysiology assay. The format is cell-based.
Series [16] concerns the target Muscarinic acetylcholine receptor M5 (Homo sapiens) (UniProt P08912). The series can be described thus: Agonist activity at M5 receptor (unknown origin) up to 10 uM. The format is functional.
Series [17] concerns the target Muscarinic acetylcholine receptor M3 (Homo sapiens) (UniProt P20309). The series is described as follows: Agonist activity at M3 receptor (unknown origin) up to 10 uM. The format is functional.
In series [18] the target is Muscarinic acetylcholine receptor M1 (Rattus norvegicus, UniProt P08482). The series can be described thus: Positive allosteric modulation of rat M1 receptor assessed as increase in acetylcholine-induced calcium flux by FLIPR assay. The format is functional.
Series [19] concerns the target Muscarinic acetylcholine receptor M5 (Homo sapiens) (UniProt P08912). The series can be described thus: Positive allosteric modulation of M5 receptor (unknown origin) relative to control. The format is functional.
The target in series [20] is T2, Muscarinic acetylcholine receptor M1 (Homo sapiens). The series is described as follows: Receptor occupancy at M1 receptor (unknown origin) at EC50.
Series [21] has the same target. The series can be described thus: Agonist activity at M1 receptor (unknown origin) up to 10 uM. The format is functional.
The test system of series [22] is Muscarinic acetylcholine receptor M1 (Homo sapiens), P11229 [Y179A,W400A]. The series can be described thus: Positive allosteric modulation of M1 receptor Y179A/W400A mutant (unknown origin) relative to control.
Series [23] has as its target Muscarinic acetylcholine receptor M4 (Homo sapiens) (UniProt P08173). The series is described as follows: Agonist activity at M4 receptor (unknown origin) up to 10 uM. The format is functional.
The target of series [24] is Muscarinic acetylcholine receptor M2 (Homo sapiens) (UniProt P08172). The series is described as follows: Positive allosteric modulation of M2 receptor (unknown origin). The format is functional.
The target in series [25] is Muscarinic acetylcholine receptor M1 (Rattus norvegicus) (UniProt P08482). The series can be described thus: Positive allosteric modulation of rat M1 receptor assessed as increase in acetylcholine-induced calcium flux by FLIPR assay relative to acetylcholine. The format is functional.
The target in series [26] is Muscarinic acetylcholine receptor M5 (Homo sapiens, UniProt P08912). The series is described as follows: Positive allosteric modulation of M5 receptor (unknown origin). The format is functional.
In series [27] the target is T2, Muscarinic acetylcholine receptor M1 (Homo sapiens). The series is described as follows: Antagonist activity at M1 receptor (unknown origin). The format is functional.
Series [28] has as its target Muscarinic acetylcholine receptor M2 (Homo sapiens) (UniProt P08172). The series is described as follows: Agonist activity at M2 receptor (unknown origin) up to 10 uM. The format is functional.
The target of series [29] is Muscarinic acetylcholine receptor M1 (Homo sapiens, UniProt P11229, W400A/Y179A). The series is described as follows: Positive allosteric modulation of M1 receptor Y179A/W400A mutant (unknown origin).

The structures appear in SMILES notation. Activity calls are given as the source filed them. The rule behind the calls is not given here.

As a reminder, the EC50 is the concentration at which the effect is half-maximal. For orientation: Emax means the maximal effect, on the per cent scale that the assay sets. For orientation: Kb means the equilibrium dissociation constant of an antagonist, usually derived from a functional assay.

Chain of Muscarinic acetylcholine receptor M5 (Homo sapiens) (P08912 whole entry): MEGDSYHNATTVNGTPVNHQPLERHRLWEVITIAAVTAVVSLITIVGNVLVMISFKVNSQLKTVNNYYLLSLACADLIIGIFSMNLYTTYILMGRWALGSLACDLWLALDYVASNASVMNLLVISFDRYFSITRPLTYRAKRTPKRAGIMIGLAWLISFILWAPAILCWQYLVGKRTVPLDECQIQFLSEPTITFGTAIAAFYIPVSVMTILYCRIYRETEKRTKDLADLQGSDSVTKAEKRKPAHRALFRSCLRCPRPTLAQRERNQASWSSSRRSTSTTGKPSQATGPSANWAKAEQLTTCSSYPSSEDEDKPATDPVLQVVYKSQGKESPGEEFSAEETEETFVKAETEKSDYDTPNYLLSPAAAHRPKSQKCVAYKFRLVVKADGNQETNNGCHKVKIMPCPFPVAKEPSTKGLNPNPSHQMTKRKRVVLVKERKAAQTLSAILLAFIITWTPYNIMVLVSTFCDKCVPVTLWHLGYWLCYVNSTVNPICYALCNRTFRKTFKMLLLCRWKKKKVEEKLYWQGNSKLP
Chain of Muscarinic acetylcholine receptor M2 (Homo sapiens) (P08172 whole entry): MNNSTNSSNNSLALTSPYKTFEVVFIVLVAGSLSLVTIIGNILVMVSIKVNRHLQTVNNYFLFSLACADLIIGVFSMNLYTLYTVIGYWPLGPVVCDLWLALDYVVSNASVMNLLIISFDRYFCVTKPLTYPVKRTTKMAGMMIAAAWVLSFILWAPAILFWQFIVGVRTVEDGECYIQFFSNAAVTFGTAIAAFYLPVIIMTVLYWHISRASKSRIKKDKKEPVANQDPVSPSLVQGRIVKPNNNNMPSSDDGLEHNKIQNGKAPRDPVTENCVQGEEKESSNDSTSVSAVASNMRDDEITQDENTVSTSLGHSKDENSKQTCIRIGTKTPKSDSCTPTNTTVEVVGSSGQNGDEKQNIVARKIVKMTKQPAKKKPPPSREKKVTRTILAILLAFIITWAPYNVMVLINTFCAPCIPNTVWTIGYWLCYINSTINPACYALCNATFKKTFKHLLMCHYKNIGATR
Chain of Muscarinic acetylcholine receptor M4 (Homo sapiens) (P08173 whole entry): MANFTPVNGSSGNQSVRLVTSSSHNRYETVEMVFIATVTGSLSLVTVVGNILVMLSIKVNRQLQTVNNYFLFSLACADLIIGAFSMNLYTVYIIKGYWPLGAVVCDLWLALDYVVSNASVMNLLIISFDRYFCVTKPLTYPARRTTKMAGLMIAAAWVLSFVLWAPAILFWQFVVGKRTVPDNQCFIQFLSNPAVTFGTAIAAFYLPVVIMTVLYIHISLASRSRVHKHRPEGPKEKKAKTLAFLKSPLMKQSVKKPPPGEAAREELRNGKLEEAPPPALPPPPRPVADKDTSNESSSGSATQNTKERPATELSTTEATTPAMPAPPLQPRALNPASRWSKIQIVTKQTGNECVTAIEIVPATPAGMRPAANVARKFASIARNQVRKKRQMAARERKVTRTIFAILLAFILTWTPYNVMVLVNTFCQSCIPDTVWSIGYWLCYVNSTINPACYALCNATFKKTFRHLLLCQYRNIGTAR
Chain of GABA-A receptor; alpha-2/beta-3/gamma-2 (P18507 whole entry): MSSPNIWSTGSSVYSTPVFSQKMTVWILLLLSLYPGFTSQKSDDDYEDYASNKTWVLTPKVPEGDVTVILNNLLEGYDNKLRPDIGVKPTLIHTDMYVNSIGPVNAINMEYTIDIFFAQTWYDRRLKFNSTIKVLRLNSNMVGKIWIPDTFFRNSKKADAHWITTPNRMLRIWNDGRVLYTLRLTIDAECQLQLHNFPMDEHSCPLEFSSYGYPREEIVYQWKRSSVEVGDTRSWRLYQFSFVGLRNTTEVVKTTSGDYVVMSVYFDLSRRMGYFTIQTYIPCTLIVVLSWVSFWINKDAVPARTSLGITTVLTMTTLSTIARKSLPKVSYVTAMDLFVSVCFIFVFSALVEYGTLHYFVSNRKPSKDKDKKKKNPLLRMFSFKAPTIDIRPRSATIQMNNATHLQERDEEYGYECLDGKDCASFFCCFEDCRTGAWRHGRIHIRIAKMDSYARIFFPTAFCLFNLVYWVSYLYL
Chain of GABA-A receptor; alpha-2/beta-3/gamma-2 (P28472 whole entry): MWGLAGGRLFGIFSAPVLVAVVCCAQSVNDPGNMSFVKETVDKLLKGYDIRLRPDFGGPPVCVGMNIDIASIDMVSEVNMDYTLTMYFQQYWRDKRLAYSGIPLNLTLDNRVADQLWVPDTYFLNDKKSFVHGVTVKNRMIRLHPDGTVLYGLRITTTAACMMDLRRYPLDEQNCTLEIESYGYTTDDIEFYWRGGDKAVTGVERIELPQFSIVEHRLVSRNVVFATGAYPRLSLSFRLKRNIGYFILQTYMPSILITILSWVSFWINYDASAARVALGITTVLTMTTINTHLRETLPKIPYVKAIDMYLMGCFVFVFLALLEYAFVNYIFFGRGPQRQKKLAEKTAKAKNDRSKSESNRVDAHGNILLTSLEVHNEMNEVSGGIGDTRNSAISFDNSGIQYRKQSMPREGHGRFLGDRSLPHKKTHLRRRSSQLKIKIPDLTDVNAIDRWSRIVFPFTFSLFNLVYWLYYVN
Chain of GABA-A receptor; alpha-2/beta-3/gamma-2 (P47869 whole entry): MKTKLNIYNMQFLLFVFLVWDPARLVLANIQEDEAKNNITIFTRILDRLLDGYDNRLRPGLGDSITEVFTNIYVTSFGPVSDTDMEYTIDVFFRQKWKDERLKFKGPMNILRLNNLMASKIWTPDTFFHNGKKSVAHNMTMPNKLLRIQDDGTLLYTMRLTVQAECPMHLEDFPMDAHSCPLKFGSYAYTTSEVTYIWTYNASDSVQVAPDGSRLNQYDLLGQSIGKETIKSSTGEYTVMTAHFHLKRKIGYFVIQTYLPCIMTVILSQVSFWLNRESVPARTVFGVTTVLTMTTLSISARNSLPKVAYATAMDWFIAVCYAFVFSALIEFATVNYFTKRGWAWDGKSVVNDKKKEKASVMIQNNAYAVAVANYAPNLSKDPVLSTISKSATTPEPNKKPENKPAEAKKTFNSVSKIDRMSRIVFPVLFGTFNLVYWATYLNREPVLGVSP
Chain of GABA-A receptor; alpha-5/beta-3/gamma-2 (P18507 whole entry): as the sequence (P18507 whole entry) above
Chain of GABA-A receptor; alpha-5/beta-3/gamma-2 (P28472 whole entry): as the sequence (P28472 whole entry) above
Chain of GABA-A receptor; alpha-5/beta-3/gamma-2 (P31644 whole entry): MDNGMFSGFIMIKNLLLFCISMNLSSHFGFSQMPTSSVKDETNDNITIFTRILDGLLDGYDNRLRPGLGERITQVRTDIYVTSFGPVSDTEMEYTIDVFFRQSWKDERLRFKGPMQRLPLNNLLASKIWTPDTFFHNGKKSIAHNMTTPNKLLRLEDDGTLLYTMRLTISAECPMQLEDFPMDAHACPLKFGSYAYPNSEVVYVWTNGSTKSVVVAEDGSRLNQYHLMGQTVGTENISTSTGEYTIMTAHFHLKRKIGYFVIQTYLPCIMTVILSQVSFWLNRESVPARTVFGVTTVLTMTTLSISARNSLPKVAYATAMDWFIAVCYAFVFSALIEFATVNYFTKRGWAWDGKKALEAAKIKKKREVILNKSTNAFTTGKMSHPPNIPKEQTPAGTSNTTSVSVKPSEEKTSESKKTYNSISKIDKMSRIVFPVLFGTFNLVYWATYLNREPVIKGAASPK
Chain of Muscarinic acetylcholine receptor M1 (Homo sapiens), P11229 [Y179A,W400A] (P11229 whole entry Y179A/W400A): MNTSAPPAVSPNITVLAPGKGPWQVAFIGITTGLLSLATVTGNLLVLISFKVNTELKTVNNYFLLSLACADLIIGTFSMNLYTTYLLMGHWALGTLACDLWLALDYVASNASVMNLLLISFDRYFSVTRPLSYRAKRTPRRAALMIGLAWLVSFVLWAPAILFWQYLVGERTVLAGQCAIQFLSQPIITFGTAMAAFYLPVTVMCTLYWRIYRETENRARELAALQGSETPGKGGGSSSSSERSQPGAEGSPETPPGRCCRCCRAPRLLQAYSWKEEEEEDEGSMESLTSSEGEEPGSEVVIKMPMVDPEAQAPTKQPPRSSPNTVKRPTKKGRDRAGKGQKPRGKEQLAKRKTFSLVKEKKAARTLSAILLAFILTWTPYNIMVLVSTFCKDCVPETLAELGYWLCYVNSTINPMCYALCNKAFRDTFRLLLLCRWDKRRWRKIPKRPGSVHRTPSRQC

With `CC(C)[C@@H]1N=C(c2ccccc2)c2cc(C(F)(F)F)ccc2NC1=S`, the Stability entry in series [1] and in [7] was “Stable” in each case. The EC50 in series [2] came out at 71 nM. Besides, the “inhibition (INH)” value in series [3] is reported as “Not Active”. Further, in series [4], the Drug metabolism result is reported as “Metabolite_Detected”. For the same compound, in series [5], the Activity entry is “Not Active”. In [6], the Emax is 72%.
As to `CC(C)[C@@H]1N=C(c2ccccc2)c2cc(Cl)ccc2NC1=S`, the EC50 in series [8] is greater than 24000 nM; in [9] it was greater than 24000 nM; in [10], greater than 24000 nM; in [11], greater than 24000 nM; in [2], 70 nM; in series [12], greater than 24000 nM. For the same compound, the EC50 in series [13], in series [14] and in series [15] was greater than 24000 nM in each case. Also, in series [6], the Emax is 102%.
Consider `CC(C)[C@@H]1N=C(c2ccccc2F)c2cc(Cl)ccc2NC1=S`, for which the result in [16], in series [17], in series [21], in series [23], in series [24] and in series [28] was inactive. Also, the EC50 in series [18] was determined as 218 nM; in [2] it was 80 nM; in series [26], 1300 nM; in series [29], 178 nM. In addition, the Emax was found to be 70% in series [19], 80% in series [22], 88% in [25] and 78% in [6]. This compound showed an Occ in series [20] of 33%. Moreover, the Kb in [27] stood at 610 nM.

The values above are taken from ChEMBL document CHEMBL4177694, “Discovery of the first low-shift positive allosteric modulators for the muscarinic M1 receptor” (Bioorg Med Chem Lett, 2017).
